Data as given in US10669240B2, “5-substituted indazole-3-carboxamides and preparation and use thereof” (Samumed, LLC, priority 2014, dated 2020).

The molecules below were run against DYRK1A (Homo sapiens (Human), UniProt Q13627) (assay: DYRK1A activity Tau assay: pSer396 Tau in SH-SY5Y cells by ELISA / western blot). Conditions: overnight (16-18 h) exposure.
Type: cell-based

| EC50 [µM] | SMILES |
| --- | --- |
| 0.031 | O=C(NC1CCOCC1)c1n[nH]c2ccc(-c3cccnc3)cc12 [Compound 2, 5-(Pyridin-3-yl)-N-(tetrahydro-2H-pyran-4-yl)-1H-indazole-3-carboxamide] |
| 0.055 | CC(C)NC(=O)c1n[nH]c2ccc(-c3cccnc3)cc12 [Compound 7, N-Isopropyl-5-(pyridin-3-yl)-1H-indazole-3-carboxamide] |
| 0.008 | CN1CCC(NC(=O)c2n[nH]c3ccc(-c4cncc(CN5CCC(F)(F)C5)c4)cc23)CC1 [Compound 10, 5-(5-((3,3-Difluoropyrrolidin-1-yl)methyl)pyridin-3-yl)-N-(1-methylpiperidin-4-yl)-1H-indazole-3-carboxamide] |
| > 10 | O=C(NC1CCCCC1)c1n[nH]c2ccc(-c3cccc(F)c3)cc12 [Compound 12, N-Cyclohexyl-5-(3-fluorophenyl)-1H-indazole-3-carboxamide] |
| 0.332 | O=C(NC1CCOCC1)c1n[nH]c2ccc(-c3cccc(F)c3)cc12 [Compound 13, 5-(3-Fluorophenyl)-N-(tetrahydro-2H-pyran-4-yl)-1H-indazole-3-carboxamide] |
| 1.15 | CN1CCC(NC(=O)c2n[nH]c3ccc(-c4ccccc4)cc23)CC1 [Compound 14, N-(1-Methylpiperidin-4-yl)-5-phenyl-1H-indazole-3-carboxamide] |
| 0.324 | CN1CCC(NC(=O)c2n[nH]c3ccc(-c4cccc(F)c4)cc23)CC1 [Compound 15, 5-(3-Fluorophenyl)-N-(1-methylpiperidin-4-yl)-1H-indazole-3-carboxamide] |
| 9 | CN1CCC(NC(=O)c2n[nH]c3ccc(-c4ccc(F)cc4)cc23)CC1 [Compound 17, 5-(4-Fluorophenyl)-N-(1-methylpiperidin-4-yl)-1H-indazole-3-carboxamide] |
| 0.454 | CN1CCC(NC(=O)c2n[nH]c3ccc(-c4ccc(F)cc4F)cc23)CC1 [Compound 18, 5-(2,4-Difluorophenyl)-N-(1-methylpiperidin-4-yl)-1H-indazole-3-carboxamide] |
| 0.029 | CN1CCC(NC(=O)c2n[nH]c3ccc(-c4cccc(F)c4F)cc23)CC1 [Compound 20, 5-(2,3-Difluorophenyl)-N-(1-methylpiperidin-4-yl)-1H-indazole-3-carboxamide] |
| 0.052 | O=C(NC1Cc2ccccc2C1)c1n[nH]c2ccc(-c3cccnc3)cc12 [Compound 22, N-(2,3-Dihydro-1H-inden-2-yl)-5-(pyridin-3-yl)-1H-indazole-3-carboxamide] |
| 0.031 | CN(C)Cc1cncc(-c2ccc3[nH]nc(C(=O)NC4Cc5ccccc5C4)c3c2)c1 [Compound 23, N-(2,3-Dihydro-1H-inden-2-yl)-5-(5-((dimethylamino)methyl)pyridin-3-yl)-1H-indazole-3-carboxamide] |
| 0.015 | O=C(NC1Cc2ccccc2C1)c1n[nH]c2ccc(-c3cncc(CN4CCCCC4)c3)cc12 [Compound 24, N-(2,3-Dihydro-1H-inden-2-yl)-5-(5-(piperidin-1-ylmethyl)pyridin-3-yl)-1H-indazole-3-carboxamide] |
| 0.028 | O=C(NC1Cc2ccccc2C1)c1n[nH]c2ccc(-c3cncc(CN4CCCC4)c3)cc12 [Compound 25, N-(2,3-Dihydro-1H-inden-2-yl)-5-(5-(pyrrolidin-1-ylmethyl)pyridin-3-yl)-1H-indazole-3-carboxamide] |
| 0.001 | O=C(NCc1ccccc1)c1n[nH]c2ccc(-c3cncc(CN4CCCCC4)c3)cc12 [Compound 26, N-Benzyl-5-(5-(piperidin-1-ylmethyl)pyridin-3-yl)-1H-indazole-3-carboxamide] |
| 0.12 | O=C(NCc1cccc(F)c1)c1n[nH]c2ccc(-c3cc(F)cc(CN4CCCCC4)c3)cc12 [Compound 30, 5-(3-Fluoro-5-(piperidin-1-ylmethyl)phenyl)-N-(3-fluorobenzyl)-1H-indazole-3-carboxamide] |
| 0.118 | O=C(NCc1cc(F)cc(F)c1)c1n[nH]c2ccc(-c3cc(F)cc(CN4CCCCC4)c3)cc12 [Compound 31, N-(3,5-Difluorobenzyl)-5-(3-fluoro-5-(piperidin-1-ylmethyl)phenyl)-1H-indazole-3-carboxamide] |
| 0.279 | O=C(NC1(c2ccccc2)CC1)c1n[nH]c2ccc(-c3cccnc3)cc12 [Compound 32, N-(1-Phenylcyclopropyl)-5-(pyridin-3-yl)-1H-indazole-3-carboxamide] |
| 0.233 | O=C(NC1(c2ccccc2)CC1)c1n[nH]c2ccc(-c3cncc(CN4CCCC4)c3)cc12 [Compound 34, N-(1-Phenylcyclopropyl)-5-(5-(pyrrolidin-1-ylmethyl)pyridin-3-yl)-1H-indazole-3-carboxamide] |
| 0.158 | O=C(NC1(c2ccccc2)CC1)c1n[nH]c2ccc(-c3cncc(CN4CCCCC4)c3)cc12 [Compound 36, N-(1-Phenylcyclopropyl)-5-(5-(piperidin-1-ylmethyl)pyridin-3-yl)-1H-indazole-3-carboxamide] |
| 0.196 | CN(C)Cc1cncc(-c2ccc3[nH]nc(C(=O)NC4(c5ccccc5)CC4)c3c2)c1 [Compound 37, 5-(5-((Dimethylamino)methyl)pyridin-3-yl)-N-(1-phenylcyclopropyl)-1H-indazole-3-carboxamide] |

| EC50 [µM] | SMILES |
| --- | --- |
| 0.372 | O=C(Nc1ccc(C(F)(F)F)cn1)c1n[nH]c2ccc(-c3cccnc3)cc12 [Compound 40, 5-(Pyridin-3-yl)-N-(5-(trifluoromethyl)pyridin-2-yl)-1H-indazole-3-carboxamide] |
| 0.118 | O=C(Nc1cc(C(F)(F)F)ccn1)c1n[nH]c2ccc(-c3cccnc3)cc12 [Compound 41, 5-(Pyridin-3-yl)-N-(4-(trifluoromethyl)pyridin-2-yl)-1H-indazole-3-carboxamide] |
| 0.115 | O=C(Nc1cccc(C(F)(F)F)n1)c1n[nH]c2ccc(-c3cccnc3)cc12 [Compound 42, 5-(Pyridin-3-yl)-N-(6-(trifluoromethyl)pyridin-2-yl)-1H-indazole-3-carboxamide] |
| 0.004 | O=C(Nc1ncc(F)cc1F)c1n[nH]c2ccc(-c3cccnc3)cc12 [Compound 46, N-(3,5-Difluoropyridin-2-yl)-5-(pyridin-3-yl)-1H-indazole-3-carboxamide] |
| 0.002 | O=C(Nc1ccc(F)cn1)c1n[nH]c2ccc(-c3cncc(CN4CCCCC4)c3)cc12 [Compound 57, N-(5-Fluoropyridin-2-yl)-5-(5-(piperidin-1-ylmethyl)pyridin-3-yl)-1H-indazole-3-carboxamide] |
| 0.013 | O=C(Nc1ncccc1C(F)(F)F)c1n[nH]c2ccc(-c3cncc(CN4CCCCC4)c3)cc12 [Compound 59, 5-(5-(Piperidin-1-ylmethyl)pyridin-3-yl)-N-(3-(trifluoromethyl)pyridin-2-yl)-1H-indazole-3-carboxamide] |
| 0.02 | O=C(Nc1cc(C(F)(F)F)ccn1)c1n[nH]c2ccc(-c3cncc(CN4CCCCC4)c3)cc12 [Compound 60, 5-(5-(Piperidin-1-ylmethyl)pyridin-3-yl)-N-(4-(trifluoromethyl)pyridin-2-yl)-1H-indazole-3-carboxamide] |
| 0.01 | O=C(Nc1ccc(C(F)(F)F)cn1)c1n[nH]c2ccc(-c3cncc(CN4CCCCC4)c3)cc12 [Compound 61, 5-(5-(Piperidin-1-ylmethyl)pyridin-3-yl)-N-(5-(trifluoromethyl)pyridin-2-yl)-1H-indazole-3-carboxamide] |
| 0.005 | O=C(Nc1cccc(C(F)(F)F)n1)c1n[nH]c2ccc(-c3cncc(CN4CCCCC4)c3)cc12 [Compound 62, 5-(5-(Piperidin-1-ylmethyl)pyridin-3-yl)-N-(6-(trifluoromethyl)pyridin-2-yl)-1H-indazole-3-carboxamide] |
| 0.001 | [2H]C([2H])(c1cncc(-c2ccc3[nH]nc(C(=O)Nc4cccnc4)c3c2)c1)N1CCCCC1 [Compound 63, 5-(5-(piperidin-1-ylmethyl-d2)pyridin-3-yl)-N-(pyridin-3-yl)-1H-indazole-3-carboxamide] |
| 0.001 | O=C(Nc1c(F)cncc1F)c1n[nH]c2ccc(-c3cncc(CN4CCCCC4)c3)cc12 [Compound 79, N-(3,5-Difluoropyridin-4-yl)-5-(5-(piperidin-1-ylmethyl)pyridin-3-yl)-1H-indazole-3-carboxamide] |
| 0.1 | CC(C)N1CCC(NC(=O)c2n[nH]c3ccc(-c4cccc(F)c4F)cc23)CC1 [Compound 92, 5-(2,3-Difluorophenyl)-N-(1-isopropylpiperidin-4-yl)-1H-indazole-3-carboxamide] |
| 0.073 | CC(C)CN1CCC(NC(=O)c2n[nH]c3ccc(-c4cccc(F)c4F)cc23)CC1 [Compound 93, 5-(2,3-Difluorophenyl)-N-(1-isobutylpiperidin-4-yl)-1H-indazole-3-carboxamide] |
| > 10 | CN1CCC(NC(=O)c2n[nH]c3ccc(-c4ccc(C(F)(F)F)nc4)cc23)CC1 [Compound 94, N-(1-Methylpiperidin-4-yl)-5-(6-(trifluoromethyl)pyridin-3-yl)-1H-indazole-3-carboxamide] |
| 0.001 | O=C(Nc1ccnc(N2CCCCC2)c1)c1n[nH]c2ccc(-c3cncc(CN4CCCCC4)c3)cc12 [Compound 101, N-(2-(Piperidin-1-yl)pyridin-4-yl)-5-(5-(piperidin-1-ylmethyl)pyridin-3-yl)-1H-indazole-3-carboxamide] |
| 0.004 | O=C(Nc1ccnc(N2CCCC2)c1)c1n[nH]c2ccc(-c3cccnc3)cc12 [Compound 102, 5-(Pyridin-3-yl)-N-(2-(pyrrolidin-1-yl)pyridin-4-yl)-1H-indazole-3-carboxamide] |
| 0.043 | CC(C)NC(=O)c1n[nH]c2ccc(-c3cncc(CN4CCC4)c3)cc12 [Compound 128, 5-(5-(Azetidin-1-ylmethyl)pyridin-3-yl)-N-isopropyl-1H-indazole-3-carboxamide] |
| 0.01 | CC(C)NC(=O)c1n[nH]c2ccc(-c3cncc(CN4CCCCC4)c3)cc12 [Compound 131, N-Isopropyl-5-(5-(piperidin-1-ylmethyl)pyridin-3-yl)-1H-indazole-3-carboxamide] |
| 0.576 | CC(C)NC(=O)c1n[nH]c2ccc(-c3cccc(F)c3F)cc12 [Compound 140, 5-(2,3-Difluorophenyl)-N-isopropyl-1H-indazole-3-carboxamide] |
| 0.01 | O=C(NC1CC1)c1n[nH]c2ccc(-c3cncc(N4CCCC4)c3)cc12 [Compound 143, N-Cyclopropyl-5-(5-(pyrrolidin-1-yl)pyridin-3-yl)-1H-indazole-3-carboxamide] |
